“Also recorded” adds a separate entry of the source.
Experiments:
MDA-MB-231 cells [1] = assay: ROCK inhibition: EphA2-ephrin-A1 radial transport on ephrin-A1 functionalized supported bilayers; type: cell-based, human; settings: inhibitor 1 to 50 μM, normalized to untreated samples
Procedure: Radial Transport Analysis. Bright field microscopy was used to determine the area occupied by each cell. The corresponding areas in the fluorescence channel were then analyzed using the Radial Profile plugin from ImageJ, yielding a plot of normalized fluorescence intensities versus radial distance from the cell center. Plots were then normalized for cell size and averaged. Least squares analysis was then performed on the average normalized radial distribution using Origin 7.0 (OriginLab, Northampton, Mass.), and the slope of the calculated line was used as a score for propensity to radially transport ephrin-A1. ROCK Inhibition. Cells were detached from cell culture flasks using trypsin-EDTA and incubated at 37° C. for 2 hrs in media containing ROCK inhibitor Y-27632 (Sigma-Aldrich, Inc.) at concentrations ranging from 1-50 μM. […] Cells were cultured in drugged media for one hr on well plates containing Alexa Fluor 647-labeled ephrin-A1 functionalized supported bilayers. Cells were fixed, stained and imaged with epifluorescence microscopy as described above.

MDA-MB-231 cells [2] = assay: Trypan blue staining and cell counting (cell viability) under ROCK inhibitor treatment; type: cell-based, human; settings: 2 hrs at 37° C., 1-50 μM
Procedure: ROCK Inhibition. Cells were detached from cell culture flasks using trypsin-EDTA and incubated at 37° C. for 2 hrs in media containing ROCK inhibitor Y-27632 (Sigma-Aldrich, Inc.) at concentrations ranging from 1-50 μM. […] Cells were cultured in drugged media for one hr on well plates containing Alexa Fluor 647-labeled ephrin-A1 functionalized supported bilayers. Cells were fixed, stained and imaged with epifluorescence microscopy as described above.

MDA-MB-231 cells [3] = settings: binary mixture with ephrin-A1, 1 hr after plating
Procedure: Surface Functionalization. After lipid bilayer deposition, substrates were incubated for 45 min with a 0.01% bovine serum albumin (BSA; Sigma-Aldrich, Inc.) solution to minimize non-specific protein adsorption. The supported membranes were then incubated with a 17 nM solution of streptavidin (Fisher Scientific, Pittsburgh, Pa.) for 45 minutes. For experiments that quantify protein surface density, streptavidin conjugated to Alexa Fluor 488 (Invitrogen Corp.) was substituted for the unlabeled protein. The supported membrane was then thoroughly rinsed and substrates were incubated for 45 min with a 50 nM solution of ephrin-A1 (R&D Systems, Minneapolis, Minn.), which had been biotinylated (Fisher Scientific) and conjugated to Alexa Fluor 594 or Alexa Fluor 647 (both from Invitrogen Corp.).
Optical Microscopy. We used Nikon Eclipse TE2000-E and TE300 inverted microscopes with mercury arc lamps for epifluorescence illumination and 12 V, 100 W halogen lamps for bright field illumination. Total internal reflection fluorescence (TIRF) illumination was provided using a krypton/argon ion laser for 647 nm excitation, and an argon ion laser (Stabilite 2018 and Model 177 respectively, both from Spectra-Physics, Mountain View, Calif.) for 488 nm excitation. […]

Compound	Eph-ephrin radial transport (capacity to transport EphA2-ephrin-A1 complexes to the center of the cell-supported membrane junction) (MDA-MB-231 cells [1])	cell viability (Trypan blue staining and cell counting) (MDA-MB-231 cells [2])	EphA2 organization with increasing RGD peptide density (MDA-MB-231 cells [3])	cell-supported membrane contact area (RICM) with increasing RGD peptide density (MDA-MB-231 cells [3])
C[C@@H](N)[C@H]1CC[C@H](C(=O)Nc2ccncc2)CC1 [Y-27632]	dose-dependent decrease; also recorded: dosage-dependent decrease	no adverse effects		
[Arg-Gly-Asp-d-Phe-Lys(Biotin-PEG-PEG)] [cyclic RGD peptide]			no change in EphA2 organization	progressively larger

Source: US9708665B2, “Spatial biomarker of disease and detection of spatial organization of cellular receptors” (The Regents of the University of California, priority 2009, dated 2017)
